Data: patent US20230117034A1, “PYRAZOLOTRIAZINES” (Bayer Aktiengesellschaft, priority 2019, published 2023)

Target: T1, CDK12 protein level in CAL-120 breast cancer cells (Homo sapiens, UniProt Q9NYV4)
T1 construct: endogenous in cells; host or cells: CAL-120 human breast cancer cells (DSMZ ACC 459)
Assay: CDK12 protein level: Protein Simple (CDK12, CAL-120)
Format: cell-based
Conditions: CAL-120 cells, 18 h with compound, CDK12/HSP90 peak area ratio vs vehicle, median, read-out: CDK12 protein level in CAL-120 breast ca cells, DC50-[mol/l] (median)
Description: CAL-120 human breast cancer cells (DSMZ ACC 459) were seeded at 300,000 cells/well in 6-well plates containing 2 mL of growth medium (DMEM, 10% FCS, glutamine) and incubated for 24 h at 37° C. in an humidified incubator. Test compounds were added at various concentrations, control wells received solvent (DMSO), and the plates were incubated for another 18 h at 37° C. Cells were washed 2 times with PBS and lysed in 75 microL lysis buffer (MSD-Puffer (MSD, #R60TX-2), +1% 505S+PhosSTOP (Roche #04906837001)+complete mini (Roche #04693159001)) by scraping. The lysates were pushed 2 times through Qiashedders followed by centrifugation at 14,000 rpm for 30-50 sec. The supernatant was stored at −20° C. Proteins were separated by applying 0.4 microgramms of protein lysate to Protein Simple 66-440 kDa (Protein Simple #SM-S002) size assay columns on a PEGGY SUE or SALLY SUE equipment according to the supplier's manual. CDK12 and HSP90 (loading control) were detected using anti-human CDK12 antibody (Cell Signaling Technologies (CST) #11793) at 1:25 dilution and anti-human HSP90 antibody (CST #4877) at 1:5,000 dilution. CDK12 and HSP90 peak areas were determined using Protein Simple Compass software. Ratio of CDK12/HSP90 peak areas were calculated for each sample, and […] values (degrading concentration to achieve 50% reduction relative to vehicle treated control) were determined by means of a 4 parameter fit.

T1 sequence (Q9NYV4 whole entry): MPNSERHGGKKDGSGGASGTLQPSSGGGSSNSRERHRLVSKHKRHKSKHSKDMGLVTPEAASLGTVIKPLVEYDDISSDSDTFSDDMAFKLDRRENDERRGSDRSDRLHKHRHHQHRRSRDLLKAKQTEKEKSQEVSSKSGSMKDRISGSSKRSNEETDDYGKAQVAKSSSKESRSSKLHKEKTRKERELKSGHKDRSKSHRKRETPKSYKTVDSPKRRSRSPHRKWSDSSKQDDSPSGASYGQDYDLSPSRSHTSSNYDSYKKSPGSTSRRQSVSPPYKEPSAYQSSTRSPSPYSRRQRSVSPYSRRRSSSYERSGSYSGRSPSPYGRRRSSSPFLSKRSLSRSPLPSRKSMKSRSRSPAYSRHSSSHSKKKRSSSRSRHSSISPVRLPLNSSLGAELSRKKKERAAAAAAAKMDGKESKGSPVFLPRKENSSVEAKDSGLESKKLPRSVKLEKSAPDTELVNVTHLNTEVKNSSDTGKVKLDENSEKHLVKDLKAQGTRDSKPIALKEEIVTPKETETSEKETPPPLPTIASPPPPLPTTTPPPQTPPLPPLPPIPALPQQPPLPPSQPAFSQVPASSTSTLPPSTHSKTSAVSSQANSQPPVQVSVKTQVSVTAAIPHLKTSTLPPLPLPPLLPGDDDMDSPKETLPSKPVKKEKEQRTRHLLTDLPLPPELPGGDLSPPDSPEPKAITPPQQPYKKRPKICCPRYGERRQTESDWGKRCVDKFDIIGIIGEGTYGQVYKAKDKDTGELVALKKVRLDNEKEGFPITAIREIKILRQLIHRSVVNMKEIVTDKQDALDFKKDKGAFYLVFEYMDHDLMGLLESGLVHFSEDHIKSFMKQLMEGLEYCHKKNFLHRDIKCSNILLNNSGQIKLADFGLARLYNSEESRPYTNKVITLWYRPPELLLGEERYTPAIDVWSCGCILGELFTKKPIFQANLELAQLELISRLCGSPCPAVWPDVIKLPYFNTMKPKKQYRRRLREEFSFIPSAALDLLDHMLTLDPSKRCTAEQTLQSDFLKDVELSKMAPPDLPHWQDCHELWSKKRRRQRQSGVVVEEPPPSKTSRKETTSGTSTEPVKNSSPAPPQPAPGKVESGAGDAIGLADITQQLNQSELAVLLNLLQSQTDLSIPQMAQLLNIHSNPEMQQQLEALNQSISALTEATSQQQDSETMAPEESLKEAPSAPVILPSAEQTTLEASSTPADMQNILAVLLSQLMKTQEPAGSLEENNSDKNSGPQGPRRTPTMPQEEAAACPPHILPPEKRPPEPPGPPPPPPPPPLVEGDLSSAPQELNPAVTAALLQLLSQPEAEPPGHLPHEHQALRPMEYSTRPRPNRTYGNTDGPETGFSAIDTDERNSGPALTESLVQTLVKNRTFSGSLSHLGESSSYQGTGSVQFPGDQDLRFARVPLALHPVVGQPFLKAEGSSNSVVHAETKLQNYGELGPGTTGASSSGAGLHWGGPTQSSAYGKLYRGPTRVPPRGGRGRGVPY
T1 sequence (O75909 whole entry partner): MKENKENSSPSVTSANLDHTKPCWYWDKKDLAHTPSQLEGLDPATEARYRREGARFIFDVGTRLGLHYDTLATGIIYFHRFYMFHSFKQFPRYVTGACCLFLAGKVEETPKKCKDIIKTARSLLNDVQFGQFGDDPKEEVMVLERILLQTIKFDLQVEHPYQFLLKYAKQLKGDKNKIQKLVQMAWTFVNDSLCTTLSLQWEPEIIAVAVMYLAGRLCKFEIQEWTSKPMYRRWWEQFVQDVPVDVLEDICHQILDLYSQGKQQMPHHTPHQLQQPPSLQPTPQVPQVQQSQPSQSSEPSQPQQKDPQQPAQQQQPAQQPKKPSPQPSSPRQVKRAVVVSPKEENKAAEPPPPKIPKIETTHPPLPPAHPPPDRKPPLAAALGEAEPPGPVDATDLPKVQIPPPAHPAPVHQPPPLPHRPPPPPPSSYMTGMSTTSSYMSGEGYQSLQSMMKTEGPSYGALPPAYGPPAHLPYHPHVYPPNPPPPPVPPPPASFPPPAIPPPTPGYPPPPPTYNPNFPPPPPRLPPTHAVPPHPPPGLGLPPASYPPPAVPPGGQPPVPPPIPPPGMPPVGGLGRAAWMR

DC50 [nM]	SMILES
58.8	NCCc1cccc2[nH]c(CNc3nc(N4CCOCC4)nc4c(Br)cnn34)nc12 [Example 112, N-{[7-(2-aminoethyl)-1H-benzimidazol-2-yl]methyl}-8-bromo-2-(morpholin-4-yl)pyrazolo[1,5-a][1,3,5]triazin-4-amine]
1.08	CN1CCN(c2nc(NCc3nc4cc(F)ccc4[nH]3)n3ncc(C4CC4)c3n2)CC1 [Example 164, 8-cyclopropyl-N-[(5-fluoro-1H-benzimidazol-2-yl)methyl]-2-(4-methylpiperazin-1-yl)pyrazolo[1,5-a][1,3,5]triazin-4-amine]
